# Test system: post-menopausal women
# Assay: Weekly frequency of moderate to severe VMS, dose-finding study
# Format: in vivo
# Settings: for Difference with placebo, LS adjusted mean, absolute change in weekly frequency of moderate to severe VMS / Difference with placebo, LS adjusted mean, relative change in weekly frequency of moderate to severe VMS: 2.5 mg E4 vs placebo
# Excerpt: To determine the Minimum Effective Dose (MED), firstly the selection criteria required that patients presented at least 7 moderate to severe VMS/day or at least 50 moderate to severe VMS/week in the week preceding randomization. Secondly, a placebo group was included in a double-blind fashion. Thirdly, the total patient number was such that statistical significance could be obtained between separate arms of the study. Fourthly, the absolute change from baseline in weekly frequency of moderate to severe VMS was taken into account. An analysis of covariance (ANCOVA) was performed based on the untransformed change in weekly frequency of moderate to severe VMS from baseline. Finally, the change in severity from baseline was evaluated. For this, the Severity Scoring System of VMS was documented by the subjects as follows: • a score of Mild (1) for a sensation of heat without sweating; • a score of Moderate (2) for a sensation of heat with sweating/the subject is able to continue activity; and • a score of Severe (3) for a sensation of heat with sweating/which causes cessation of activity.
# Enrolment was approximately 18 months. Individual subject participation was up to 27 weeks: up to 6 weeks pre-screening and washout, up to 4 weeks screening and run-in period, up to 91 days (13 weeks) of E4/placebo treatment followed by 2 weeks (14 days) of progestin therapy and a Follow up visit 1 week after completion of progestin therapy in non-hysterectomised subjects only.
# To define the minimum effective dose (MED) of the oral dose of E4 by evaluating changes in frequency and in severity of moderate to severe vasomotor symptoms (VMS).
# This was a prospective, multicentre, randomised, placebo-controlled, double-blinded, dose-finding study.
# Eligible subjects were hysterectomised and non-hysterectomised post-menopausal women aged 40 to 65 years, inclusive, presenting at least 7 moderate to severe hot flushes/day or at least 50 moderate to severe hot flushes/week.
# The subjects have met all of the following inclusion criteria at the randomization visit. These criteria were assessed during the screening period: • 1. Women aged 40 to 65 years, inclusive, presenting at least 7 moderate to severe hot flushes/day or at least 50 moderate to severe hot flushes/week in the week preceding randomization. • 2. Body Mass Index (BMI) between 18.0 and 35.0 kg/m^2, inclusive. • 3. Post-menopausal status defined as levels of follicle stimulating hormone (FSH) >40 IU/L and: • amenorrhoea for at least 12 consecutive months or, • amenorrhoea for at least 6 months with estradiol (E2)<20 pg/mL or, • at least 6 weeks post-surgical bilateral oophorectomy with or without hysterectomy with a copy of the pathology report or a statement on letterhead from the subject's physician documenting both ovaries were removed is required. • 4. For non-hysterectomised women: intact uterus with bi-layer endometrial thickness […] on TVUS. • 5. Negative pregnancy test. • 6. Good physical and mental health, in the judgement of the Principal Investigator (PI), on the basis of medical, surgical and gynaecological history, physical examination, gynaecological examination, clinical laboratory, and vital signs. • 7. Subject has provided signed and dated written informed consent before admission to the study. • 8. Subject is able to understand and comply with the protocol requirements, instructions, and protocol-stated restrictions. Exclusion Criteria:
# All treatments (Estetrol, hereinafter, E4, [2.5 mg, 5 mg, 10 mg, 15 mg] capsule) were administered once daily (QD) per os for at least 12 consecutive weeks until the last biological assessments (Day 91 maximum) had been performed.
# In order to analyse the data recorded in this study, treatment groups have been compared using an ANCOVA (analysis of covariance) with respect to the change in weekly frequency of moderate to severe VMS from baseline to weeks 4 and 12. […]
# [1] = 2.5 mg E4, week 4, ANCOVA with study centre
# [2] = 2.5 mg E4, week 4, without site effect
# [3] = 2.5 mg E4, week 12, ANCOVA with study centre
# [4] = 2.5 mg E4, week 12, without site effect
# [5] = week 4, ANCOVA with study centre
# [6] = week 12, ANCOVA with study centre
# [7] = 5 mg E4, week 4, ANCOVA with study centre
# [8] = 5 mg E4, week 4, without site effect
# [9] = 5 mg E4, week 12, ANCOVA with study centre
# [10] = 5 mg E4, week 12, without site effect
smiles,measurement,setting,value
"C[C@]12CC[C@@H]3c4ccc(O)cc4CC[C@H]3[C@@H]1[C@@H](O)[C@@H](O)[C@@H]2O [E4, 1,3,5 (10)-estratrien-3,15alpha,16alpha,17beta-tetrol]",LS adjusted mean change from baseline in weekly frequency of moderate to severe VMS,[1],−32.26
same,LS adjusted mean relative change (%) from baseline in weekly frequency of moderate to severe VMS,[1],-48.5%
same,LS adjusted mean change from baseline in weekly frequency of moderate to severe VMS,[2],−32.68
same,LS adjusted mean relative change (%) from baseline in weekly frequency of moderate to severe VMS,[2],-49.5%
same,LS adjusted mean change from baseline in weekly frequency of moderate to severe VMS,[3],−40.13
same,LS adjusted mean relative change (%) from baseline in weekly frequency of moderate to severe VMS,[3],-60.6%
same,LS adjusted mean change from baseline in weekly frequency of moderate to severe VMS,[4],−40.68
same,LS adjusted mean relative change (%) from baseline in weekly frequency of moderate to severe VMS,[4],-62.2%
same,Mean change from baseline in weekly frequency of moderate to severe VMS,"2.5 mg E4 QD per os, week 1",−17.28
same,"Relative change (% from baseline) in weekly frequency of moderate to severe VMS, mean","2.5 mg E4 QD per os, week 1",−23%
same,Mean change from baseline in weekly frequency of moderate to severe VMS,"2.5 mg E4 QD per os, week 2",−25.10
same,"Relative change (% from baseline) in weekly frequency of moderate to severe VMS, mean","2.5 mg E4 QD per os, week 2",−34%
same,Mean change from baseline in weekly frequency of moderate to severe VMS,"2.5 mg E4 QD per os, week 3",−32.46
same,"Relative change (% from baseline) in weekly frequency of moderate to severe VMS, mean","2.5 mg E4 QD per os, week 3",−44%
same,Mean change from baseline in weekly frequency of moderate to severe VMS,"2.5 mg E4 QD per os, week 4",−35.89
same,"Relative change (% from baseline) in weekly frequency of moderate to severe VMS, mean","2.5 mg E4 QD per os, week 4",−49%
same,Mean change from baseline in weekly frequency of moderate to severe VMS,"2.5 mg E4 QD per os, week 5",−37.16
same,"Relative change (% from baseline) in weekly frequency of moderate to severe VMS, mean","2.5 mg E4 QD per os, week 5",−50%
same,Mean change from baseline in weekly frequency of moderate to severe VMS,"2.5 mg E4 QD per os, week 6",−39.98
same,"Relative change (% from baseline) in weekly frequency of moderate to severe VMS, mean","2.5 mg E4 QD per os, week 6",−54%
same,Mean change from baseline in weekly frequency of moderate to severe VMS,"2.5 mg E4 QD per os, week 7",−42.44
same,"Relative change (% from baseline) in weekly frequency of moderate to severe VMS, mean","2.5 mg E4 QD per os, week 7",−57%
same,Mean change from baseline in weekly frequency of moderate to severe VMS,"2.5 mg E4 QD per os, week 8",−43.62
same,"Relative change (% from baseline) in weekly frequency of moderate to severe VMS, mean","2.5 mg E4 QD per os, week 8",−58%
same,Mean change from baseline in weekly frequency of moderate to severe VMS,"2.5 mg E4 QD per os, week 9",−45.19
same,"Relative change (% from baseline) in weekly frequency of moderate to severe VMS, mean","2.5 mg E4 QD per os, week 9",−61%
same,Mean change from baseline in weekly frequency of moderate to severe VMS,"2.5 mg E4 QD per os, week 10",−45.54
same,"Relative change (% from baseline) in weekly frequency of moderate to severe VMS, mean","2.5 mg E4 QD per os, week 10",−61%
same,Mean change from baseline in weekly frequency of moderate to severe VMS,"2.5 mg E4 QD per os, week 11",−44.74
same,"Relative change (% from baseline) in weekly frequency of moderate to severe VMS, mean","2.5 mg E4 QD per os, week 11",−60%
same,Mean change from baseline in weekly frequency of moderate to severe VMS,"2.5 mg E4 QD per os, week 12",−45.04
same,"Relative change (% from baseline) in weekly frequency of moderate to severe VMS, mean","2.5 mg E4 QD per os, week 12",−61%
same,"Difference with placebo, LS adjusted mean, absolute change in weekly frequency of moderate to severe VMS",[5],1.536
same,"Difference with placebo, LS adjusted mean, relative change in weekly frequency of moderate to severe VMS",[5],0.005984
same,"Difference with placebo, LS adjusted mean, absolute change in weekly frequency of moderate to severe VMS","week 4, without site effect",0.9721
same,"Difference with placebo, LS adjusted mean, relative change in weekly frequency of moderate to severe VMS","week 4, without site effect",−0.005455
same,"Difference with placebo, LS adjusted mean, absolute change in weekly frequency of moderate to severe VMS",[6],3.603
same,"Difference with placebo, LS adjusted mean, relative change in weekly frequency of moderate to severe VMS",[6],0.03673
same,"Difference with placebo, LS adjusted mean, absolute change in weekly frequency of moderate to severe VMS","week 12, without site effect",3.246
same,"Difference with placebo, LS adjusted mean, relative change in weekly frequency of moderate to severe VMS","week 12, without site effect",0.02897
same,LS adjusted mean change from baseline in weekly frequency of moderate to severe VMS,[7],−27.44
same,LS adjusted mean relative change (%) from baseline in weekly frequency of moderate to severe VMS,[7],-42.2%
same,LS adjusted mean change from baseline in weekly frequency of moderate to severe VMS,[8],−27.87
same,LS adjusted mean relative change (%) from baseline in weekly frequency of moderate to severe VMS,[8],-43.1%
same,LS adjusted mean change from baseline in weekly frequency of moderate to severe VMS,[9],−40.68
same,LS adjusted mean relative change (%) from baseline in weekly frequency of moderate to severe VMS,[9],-60.3%
same,LS adjusted mean change from baseline in weekly frequency of moderate to severe VMS,[10],−41.01
same,LS adjusted mean relative change (%) from baseline in weekly frequency of moderate to severe VMS,[10],-61.4%
same,Mean change from baseline in weekly frequency of moderate to severe VMS,"5 mg E4 QD per os, week 1",−15.04
same,"Relative change (% from baseline) in weekly frequency of moderate to severe VMS, mean","5 mg E4 QD per os, week 1",−23%
same,Mean change from baseline in weekly frequency of moderate to severe VMS,"5 mg E4 QD per os, week 2",−21.68

# From US11484539B2, “Compounds and their uses for alleviating menopause-associated symptoms” (Estetra SPRL, priority 2018, dated 2022)
